{"source": "patent US20260049077A1", "about": "“Neurotrophic Receptor Tyrosine Kinase (NTRK) Inhibitors and Methods Using Same” (Baylor College of Medicine, priority 2022, published 2026)", "key": {"[1]": {"molecular_target": "T1, NTRK2 (Homo sapiens (Human), UniProt Q16620)", "T1 sequence (Q16620 32-822)": "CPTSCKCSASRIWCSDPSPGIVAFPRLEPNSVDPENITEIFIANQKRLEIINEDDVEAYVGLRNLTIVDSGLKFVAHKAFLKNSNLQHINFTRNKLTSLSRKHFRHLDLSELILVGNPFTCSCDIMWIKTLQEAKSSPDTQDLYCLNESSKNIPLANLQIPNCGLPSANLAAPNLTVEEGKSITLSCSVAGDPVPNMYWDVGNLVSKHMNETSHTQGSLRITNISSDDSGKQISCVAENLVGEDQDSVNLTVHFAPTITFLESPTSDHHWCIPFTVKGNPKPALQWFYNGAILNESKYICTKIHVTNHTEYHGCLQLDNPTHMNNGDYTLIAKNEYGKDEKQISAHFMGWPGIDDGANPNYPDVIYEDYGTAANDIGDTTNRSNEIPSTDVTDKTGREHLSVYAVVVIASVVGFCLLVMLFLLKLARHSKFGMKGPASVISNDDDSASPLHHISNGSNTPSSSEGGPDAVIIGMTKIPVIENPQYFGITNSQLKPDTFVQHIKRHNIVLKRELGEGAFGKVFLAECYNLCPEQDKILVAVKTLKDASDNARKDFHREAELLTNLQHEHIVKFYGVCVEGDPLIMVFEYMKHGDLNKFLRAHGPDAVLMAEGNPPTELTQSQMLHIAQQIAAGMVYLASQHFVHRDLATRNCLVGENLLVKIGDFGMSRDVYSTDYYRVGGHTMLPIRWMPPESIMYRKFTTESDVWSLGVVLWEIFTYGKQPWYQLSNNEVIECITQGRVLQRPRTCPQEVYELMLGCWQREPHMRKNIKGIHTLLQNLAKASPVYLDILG", "test": "Promega NTRK2 NanoBRET live-cell target engagement", "assay_type": "cell-based", "conditions": "live cells", "text": "FIGS. 6A-6B show the live-cell engagement (FIG. 6A) concept and an NTRK2 example (FIG. 6B). FIG. 6A: Depiction of Promega's NanoBRET target engagement system as per their website. The system involves cell-based competitive displacement of a fluorescent NanoBRET tracer bound reversibly to a NanoLuc fusion protein. Test compounds displace the tracer dependent on their affinity for the target and […] the NanoBRET signal. FIG. 6B: Example of the use of Promega's NTRK2 NanoBRET cell-based system. Each NTRK2 compound (Cpd) was assayed in kinase assays and in cells. Multiple NTRK2 compounds enter the cell and are potent nanomolar inhibitors in these assays (% normalized to no Cpd).\nAs described elsewhere herein, hit compounds, including but not limited to CDD-2262, and its smaller analog, CDD-2330, were synthesized off-DNA and evaluated for NTRK2 activity."}, "[2]": {"molecular_target": "T1, NTRK2", "test": "NTRK2 inhibition (IC50)", "assay_type": "biochemical"}, "[3]": {"conditions": "human, microsomes"}, "[4]": {"conditions": "mouse, microsomes"}, "[5]": {"molecular_target": "T1, NTRK2", "test": "NTRK2 apparent inhibition constant (Ki app)"}, "[6]": {"test": "Metabolic stability in mouse liver microsomes (MLM)"}, "[7]": {"test": "Metabolic stability in human liver microsomes (HLM)"}, "[8]": {"test": "Metabolic stability in mouse and human liver microsomes", "assay_type": "in vitro ADME", "conditions": "mouse and human liver microsomes in vitro"}, "[9]": {"tested_on": "PTGS2 mRNA in endometriotic stromal cells", "test": "PGE2-stimulated PTGS2 gene expression in endometriotic stromal cells (RT-PCR)", "assay_type": "cell-based", "conditions": "1 μM PGE2, 6-hour period", "text": "FIG. 12A: estrogen, secreted by the ovary and endometriotic lesions, signals to macrophages and nerve fibers, including production of BDNF/NT-3 and pro-inflammatory cytokines, respectively. […] Activated CREB acts on the PTGS2 promoter, creating a positive feedback mechanism that results in elevated inflammation. PGE2 signaling also stimulates PKA/PKC signaling to induce the production of BDNF and NTF3 expression. […] Gene expression of PTGS2 was quantified using quantitative real time PCR (RT-PCR).\nThus, the present disclosure provides evidence that administration of CDD-2330 results in suppression of markers associated with inflammation, and accordingly, is suitable for the treatment of endometriosis."}, "[10]": {"molecular_target": "NTRK3 (Homo sapiens (Human), UniProt Q16288)", "sequence (Q16288 32-839)": "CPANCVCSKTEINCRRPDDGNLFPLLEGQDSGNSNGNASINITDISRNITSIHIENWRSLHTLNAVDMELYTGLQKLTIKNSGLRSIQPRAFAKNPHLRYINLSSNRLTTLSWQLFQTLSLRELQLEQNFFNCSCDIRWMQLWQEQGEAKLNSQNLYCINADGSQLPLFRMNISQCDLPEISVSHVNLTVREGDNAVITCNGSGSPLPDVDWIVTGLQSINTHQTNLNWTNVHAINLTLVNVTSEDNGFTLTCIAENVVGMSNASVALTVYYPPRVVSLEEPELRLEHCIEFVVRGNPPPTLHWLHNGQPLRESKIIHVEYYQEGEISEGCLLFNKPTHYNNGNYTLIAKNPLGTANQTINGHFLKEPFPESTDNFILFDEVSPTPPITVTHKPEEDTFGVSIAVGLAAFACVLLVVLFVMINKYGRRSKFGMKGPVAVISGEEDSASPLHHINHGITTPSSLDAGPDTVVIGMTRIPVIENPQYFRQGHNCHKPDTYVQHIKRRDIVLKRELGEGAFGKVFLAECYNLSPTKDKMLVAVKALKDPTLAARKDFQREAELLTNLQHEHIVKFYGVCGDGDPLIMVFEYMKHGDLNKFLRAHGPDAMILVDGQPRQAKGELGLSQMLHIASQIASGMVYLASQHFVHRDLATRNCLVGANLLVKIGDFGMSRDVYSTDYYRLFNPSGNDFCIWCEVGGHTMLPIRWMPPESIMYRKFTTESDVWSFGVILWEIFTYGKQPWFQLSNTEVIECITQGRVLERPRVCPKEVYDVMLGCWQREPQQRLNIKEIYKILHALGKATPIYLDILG", "test": "NTRK3 inhibition (IC50)", "conditions": "read-out: NTRK3 IC50"}, "[11]": {"tested_on": "human kinome", "test": "KINOMEscan kinome-wide binding profiling", "conditions": "1 μM", "text": "(§1) FIG. 7B: Using the ThermoFisher Z'-LYTE™ screening assay, kinase specificity for the NTRK subfamily was observed.\n(§2) To broadly assess the kinome-wide selectivity of CDD-2330, a KINOMEscan profiling platform was employed (FIG. 7A)."}, "[12]": {"test": "Pharmacokinetics of orally administered CDD-2330 in mice", "assay_type": "in vivo, mouse", "conditions": "oral 50 mg/kg", "method": "CDD-2330 was dissolved in 10% DMSO+0.5% methyl cellulose at 5 mg/mL. CDD-2330 was orally delivered at 50 mg/kg to mice (n=4). Blood samples were collected at 0, 0.25, 0.5, 1, 2, 4, 6, 8, and 24 h. Samples were analyzed by LC-MS, and the concentration of CDD-2330 was quantified with a standard curve (range: 0-10 μM). CDD-3031 was administered by oral gavage at a dose of 50 mg/kg. Blood samples were collected at […], 0.167, 0.25, 0.5, 1, 2, 4, 6, 8, and 24 h."}, "[13]": {"test": "Mouse brain and testis distribution", "assay_type": "in vivo", "conditions": "ip, mice, intraperitoneal", "method": "FIGS. 9A-9B show mouse brain (FIG. 9A) and testis (FIG. 9B) distribution of CDD-2330. Mice (n=3 per timepoint) were treated intraperitoneally with CDD-2330 and brain, testis, and blood samples were collected. Samples were processed and analyzed by LC-MS."}, "[14]": {"molecular_target": "MAP3K19 (Homo sapiens (Human), UniProt Q56UN5)", "sequence (Q56UN5 whole entry)": "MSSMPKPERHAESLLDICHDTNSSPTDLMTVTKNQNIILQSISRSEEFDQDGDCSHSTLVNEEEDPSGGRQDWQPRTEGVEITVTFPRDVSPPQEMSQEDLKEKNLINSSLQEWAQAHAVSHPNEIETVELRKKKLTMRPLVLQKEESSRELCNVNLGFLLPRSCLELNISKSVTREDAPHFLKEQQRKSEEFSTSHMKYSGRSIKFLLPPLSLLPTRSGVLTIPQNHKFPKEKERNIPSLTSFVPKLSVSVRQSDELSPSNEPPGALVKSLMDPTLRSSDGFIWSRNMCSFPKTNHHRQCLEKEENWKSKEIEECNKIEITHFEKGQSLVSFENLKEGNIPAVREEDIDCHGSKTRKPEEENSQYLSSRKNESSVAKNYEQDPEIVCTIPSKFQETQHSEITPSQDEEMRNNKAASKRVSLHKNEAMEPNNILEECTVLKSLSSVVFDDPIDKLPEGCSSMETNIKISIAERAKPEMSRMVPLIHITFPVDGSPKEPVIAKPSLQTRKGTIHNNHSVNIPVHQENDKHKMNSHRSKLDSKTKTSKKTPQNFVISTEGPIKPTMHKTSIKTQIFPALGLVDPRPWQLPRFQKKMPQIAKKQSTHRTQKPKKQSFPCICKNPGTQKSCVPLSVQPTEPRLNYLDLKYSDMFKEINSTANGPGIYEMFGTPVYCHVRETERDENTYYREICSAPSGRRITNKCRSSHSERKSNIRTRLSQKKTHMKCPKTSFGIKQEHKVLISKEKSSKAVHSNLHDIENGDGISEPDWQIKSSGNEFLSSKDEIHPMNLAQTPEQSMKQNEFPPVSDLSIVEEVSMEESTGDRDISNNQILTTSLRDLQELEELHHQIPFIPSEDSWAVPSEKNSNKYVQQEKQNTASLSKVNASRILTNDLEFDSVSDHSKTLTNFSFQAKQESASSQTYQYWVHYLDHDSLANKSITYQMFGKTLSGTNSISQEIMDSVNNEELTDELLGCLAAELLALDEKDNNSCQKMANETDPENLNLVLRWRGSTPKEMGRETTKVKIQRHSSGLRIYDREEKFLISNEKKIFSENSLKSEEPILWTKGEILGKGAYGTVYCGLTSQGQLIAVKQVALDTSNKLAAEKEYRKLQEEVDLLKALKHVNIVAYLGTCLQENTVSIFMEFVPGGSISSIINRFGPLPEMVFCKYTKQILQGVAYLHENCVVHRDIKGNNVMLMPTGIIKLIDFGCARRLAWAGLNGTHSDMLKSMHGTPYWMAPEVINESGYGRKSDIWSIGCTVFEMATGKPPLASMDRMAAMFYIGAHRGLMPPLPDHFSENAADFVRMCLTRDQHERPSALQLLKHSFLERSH", "test": "ThermoFisher Z'-LYTE kinase assay, MAP3K19", "assay_type": "biochemical"}, "[15]": {"molecular_target": "NTRK1 (Homo sapiens (Human), UniProt P04629)", "sequence (P04629 33-796)": "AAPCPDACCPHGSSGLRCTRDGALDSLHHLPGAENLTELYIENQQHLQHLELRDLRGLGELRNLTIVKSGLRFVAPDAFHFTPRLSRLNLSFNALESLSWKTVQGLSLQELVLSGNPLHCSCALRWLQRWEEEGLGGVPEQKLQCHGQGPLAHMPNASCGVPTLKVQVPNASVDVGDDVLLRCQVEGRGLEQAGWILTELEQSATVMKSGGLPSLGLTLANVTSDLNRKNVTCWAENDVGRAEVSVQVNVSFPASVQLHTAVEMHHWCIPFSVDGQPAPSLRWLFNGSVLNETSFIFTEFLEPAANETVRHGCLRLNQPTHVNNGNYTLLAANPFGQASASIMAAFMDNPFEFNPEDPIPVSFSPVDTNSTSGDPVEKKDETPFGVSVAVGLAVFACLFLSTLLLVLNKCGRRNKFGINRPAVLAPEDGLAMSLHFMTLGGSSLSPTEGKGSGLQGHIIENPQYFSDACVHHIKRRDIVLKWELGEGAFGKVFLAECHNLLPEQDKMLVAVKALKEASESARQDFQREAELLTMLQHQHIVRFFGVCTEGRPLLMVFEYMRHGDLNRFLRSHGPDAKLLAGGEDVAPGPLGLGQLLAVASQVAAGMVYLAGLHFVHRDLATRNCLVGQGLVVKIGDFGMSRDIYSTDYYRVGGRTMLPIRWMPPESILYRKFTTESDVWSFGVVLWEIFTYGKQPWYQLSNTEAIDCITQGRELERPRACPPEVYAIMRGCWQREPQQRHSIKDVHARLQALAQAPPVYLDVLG", "test": "NTRK1 inhibition (IC50)", "conditions": "read-out: NTRK1 IC50"}, "[16]": {"test": "Plasma ALT and AST in mice after a high dose (50 mg/kg)", "assay_type": "in vivo, mouse"}, "[17]": {"molecular_target": "NTRKs", "test": "ThermoFisher Z'-LYTE kinase assay, NTRKs", "assay_type": "biochemical", "conditions": "Z'-LYTE dose response; range over NTRKs", "text": "as §1, §2"}, "[18]": {"tested_on": "FLT3-ITD", "conditions": "cited from earlier work"}, "[19]": {"conditions": "at 4 h; cited from earlier work"}, "[20]": {"conditions": "plasma, 48 h after oral 50 mg/kg CDD-2330, individual mice"}}, "note": "Values joined by “and” are separate entries in the source; they are usually repeats but may differ in a detail not shown here. Equal values may be shown once. “Also recorded” adds a separate entry of the source. Read-outs that look alike come from different tables or passages of the source."}
{"molecule": "1-cyclobutyl-1-(pyrazolo[1,5-a]pyridin-5-ylmethyl)-3-(4-(trifluoromethoxy)phenyl)urea [CDD-2219]", "values": [{"measurement": "cell penetration and effect in NanoBRET assays", "setting": "[1]", "value": "able to penetrate cell membranes to induce an effect"}, {"measurement": "IC50", "setting": "[2]", "value": 13, "unit": "nM"}, {"measurement": "HLM t1/2", "setting": "[3]", "value": 0.913, "unit": "h"}, {"measurement": "MLM t1/2", "setting": "[4]", "value": 0.47, "unit": "h"}, {"measurement": "Ki", "setting": "[5]; read-out: NTRK2 Ki^app, apparent inhibition constant", "value": "21 ± 7", "unit": "nM"}]}
{"molecule": "O=C(O)c1cnn2ccc(CN(C(=O)Nc3ccc(OC(F)(F)F)cc3)C3CCC3)cc12", "note": "[CDD-2262, 5-((1-cyclobutyl-3-(4-(trifluoromethoxy)phenyl)ureido)methyl)pyrazolo[1,5-a]pyridine-3-carboxylic acid]", "values": [{"measurement": "cell penetration and effect in NanoBRET assays", "setting": "[1]", "value": "able to penetrate cell membranes to induce an effect"}, {"measurement": "half-life", "setting": "[6]", "value": 8.87, "unit": "h"}, {"measurement": "IC50", "setting": "[2]", "value": 32, "unit": "nM"}, {"measurement": "half-life", "setting": "[7]", "value": 7.37, "unit": "h"}, {"measurement": "half-life", "setting": "[8]", "value": "> 7", "unit": "h"}, {"measurement": "concentration at which PTGS2 mRNA is statistically suppressed", "setting": "[9]", "value": "> 100", "unit": "nM"}, {"measurement": "Ki", "setting": "[5]", "value": "17 ± 10", "unit": "nM"}]}
{"molecule": "CC(C)N(Cc1ccn2ncc(C(=O)O)c2c1)C(=O)Nc1ccc(OC(F)(F)F)cc1", "note": "[CDD-2330, 5-((1-isopropyl-3-(4-(trifluoromethoxy)phenyl)ureido)methyl)pyrazolo[1,5-a]pyridine-3-carboxylic acid]", "values": [{"measurement": "cell penetration and effect in NanoBRET assays", "setting": "[1]", "value": "able to penetrate cell membranes to induce an effect"}, {"measurement": "half-life", "setting": "[6]", "value": 27.2, "unit": "h"}, {"measurement": "IC50", "setting": "[2]", "value": 3.5, "unit": "nM"}, {"measurement": "IC50", "setting": "[10]", "value": 1.2, "unit": "nM"}, {"measurement": "half-life", "setting": "[7]", "value": 25.6, "unit": "h"}, {"measurement": "kinome-wide selectivity (KINOMEscan)", "setting": "[11]", "value": "highly specific for NTRK1, NTRK2, and NTRK3; also recorded: high specificity for NTRKs, with MAP3K19 as the only possible off-target"}, {"measurement": "blood level after oral administration", "setting": "[12]", "value": "rapid disappearance in the blood"}, {"measurement": "half-life", "setting": "[8]", "value": "> 25", "unit": "h"}, {"measurement": "Kp at 4 h", "setting": "[13]; brain, read-out: Brain:Plasma", "value": 0.31}, {"measurement": "Kp at 4 h", "setting": "[13]; testis, read-out: Testis:Plasma", "value": 0.31}, {"measurement": "selectivity over MAP3K19", "setting": "[14]; NTRKs vs MAP3K19, Z'-LYTE", "value": "> 100", "unit": "fold"}, {"measurement": "IC50", "setting": "[14]; Z'-LYTE dose response", "value": 401, "unit": "nM"}, {"measurement": "IC50", "setting": "[15]", "value": 3.8, "unit": "nM"}, {"measurement": "potential liver and other tissue toxicity", "setting": "[16]; high dose, 50 mg/kg", "value": "minimal effects"}, {"measurement": "ALT", "setting": "[16]; [20]", "value": "13.97 U/L and 26.17 U/L and 13.44 U/L and 18.74 U/L"}, {"measurement": "AST", "setting": "[16]; [20]", "value": "19.45 U/L and 18.92 U/L and 26.17 U/L and 13.26 U/L"}, {"measurement": "IC50", "setting": "[17]", "value": "1.2 to 3.8", "unit": "nM"}]}
{"molecule": "FC(F)(F)c1ccc(CNc2ccc(Cc3c[nH]c4ncc(Cl)cc34)cn2)cn1", "note": "[Pexidartinib]", "values": [{"measurement": "IC50", "setting": "[18]", "value": 9, "unit": "nM"}]}
{"molecule": "CNCC[C@@H](Oc1ccccc1C)c1ccccc1", "note": "[atomoxetine]", "values": [{"measurement": "Brain:Plasma (comparator antidepressant drug)", "setting": "[19]", "value": 20}]}
